# Measured values taken from patent US20170362283A1, “NISIN-BASED COMPOUNDS AND USE THEREOF IN THE TREATMENT OF BACTERIAL INFECTIONS” (UNIVERSITEIT UTRECHT HOLDING B.V., priority 2015, published 2017).
# Where two headings read alike, the source gives them in different places.
# How the values were obtained:
# B. subtilis = conditions: duplicate experiments
# Protocol: (§1) Determining the MIC value is a standard technique well known to the skilled person, in particular the MIC value can be measured using method M07-A9 (CLSI standard, January 2012, Vol. 32, No. 2, “Methods for Dilution Antimicrobial Susceptibility Tests for Bacteria That Grow Aerobically”).
# (§2) Different microorganisms (from glycerol stock) were plated out on blood agar and incubated at 37° C. for 24 hours. A colony was selected and 2×5 mL of TSB was inoculated. The samples and a sterile control were cultured for 16-20 hours at 37° C. Comparative compound B is nisin acting as a control. […] Comparative compounds A, D and E are also control compounds not part of the present invention.
# (§3) The overnight cultures were diluted to 0.5×10^6 CFU in TSB. 50 μL of the bacterial solution was added to each well and the plates were sealed with an adhesive membrane and incubated at 37° C. for 16 hours. The next day, the plates were visually inspected for bacterial growth.
# E. coli = conditions: duplicate experiments
# Protocol: as §1, §2, §3
# S. aureus = conditions: duplicate experiments
# Protocol: as §1, §2, §3
# M. luteus = assay type: cell-based; conditions: duplicate experiments
# Protocol: as §1
# (§4) Different microorganisms (from glycerol stock) were plated out on blood agar and incubated at 37° C. for 24 hours. A colony was selected and 2×5 mL of TSB was inoculated. The samples and a sterile control were cultured for 16-20 hours at 37° C. Comparative compound B is nisin acting as a control. Comparative compound C is vancomycin, also acting as a control. Comparative compounds A, D and E are also control compounds not part of the present invention.
# as §3
# VRE 155 = assay type: cell-based; conditions: duplicate experiments
# Protocol: as §1, §4, §3
# MRSA USA300 = assay type: cell-based, Staphylococcus aureus; conditions: duplicate experiments
# Protocol: as §1, §4, §3
# MRSA WKZ2 = assay type: cell-based, Staphylococcus aureus; conditions: duplicate experiments
# Protocol: as §1, §4, §3
# erythrocytes = experiment: Hemolysis assay; conditions: human erythrocytes, 1 h, at 32 μg/mL
# Protocol: Human whole blood was centrifuged at 600×g for 15 min and levels of plasma and hematocrit were marked on the tube. Plasma was removed and the erythrocytes washed 3× with PBS (centrifuging at 600×g for 15 mins). After discarding the supernatant, the packed cells were stored on ice. 100 μL of the peptides (128 μg/mL in PBS, 2% DMSO) as well as a control solution comprised of 2% DMSO in PBS were added to the top row of a polypropylene, round-bottom 96 well plate and 50 μL of PBS to the rest of the wells. The peptides and the DMSO control solutions were then diluted serially down the rows. 200 μL of the packed cells were added to PBS (10 mL) and 50 μL of this suspension was added to each well. A column with DI water containing 0.1% Triton X-100 was used as the 100% lysis control, and the column containing the serially-diluted PBS (1.0% DMSO) control served as the 0% lysis reference. The cells were incubated at 37° C. for 1 h. After incubation the plates were centrifuged (800×g, 5 min) and 25 μL of the supernatant was added to 100 μL DI water in a flat-bottom plate (polystyrene). The absorption at 414 nm was recorded to measure the amount of free hemoglobin.
substance,measurement,setting,value
vancomycin,MIC values B. subtilis,B. subtilis,0.03 to 0.06 µg/mL
same,MIC values E. coli,E. coli,>10 µg/mL
same,MIC values S. aureus,S. aureus,0.25 to 0.31 µg/mL
same,MIC values M. luteus,M. luteus,0.03 µg/mL
same,MIC values VRE 155,VRE 155,>10 µg/mL
same,MIC values MRSA USA300,MRSA USA300,0.625 µg/mL
same,MIC values MRSA WKZ2,MRSA WKZ2,0.625 µg/mL
same,hemolysis,erythrocytes,negligible hemolysis
same,MIC,"thirty VRE strains; VRE strain E0013, GBR, vanA",32 µg/mL
same,MIC,"thirty VRE strains; VRE strain E0072, NLD, vanA",8 µg/mL
same,MIC,"thirty VRE strains; VRE strain E0300, USA, vanA",>128 µg/mL
same,MIC,"thirty VRE strains; VRE strain E0321, FRA, vanA",>128 µg/mL
same,MIC,"thirty VRE strains; VRE strain E0333, ISR, vanA",>128 µg/mL
same,MIC,"thirty VRE strains; VRE strain E0338, ITA, vanA",>128 µg/mL
same,MIC,"thirty VRE strains; VRE strain E0341, GBR, vanA",128 µg/mL
same,MIC,"thirty VRE strains; VRE strain E0506, AUS, vanA",>128 µg/mL
same,MIC,"thirty VRE strains; VRE strain E0745, NLD, vanA",64 µg/mL
same,MIC,"thirty VRE strains; VRE strain E1130, USA, vanA",>128 µg/mL
same,MIC,"thirty VRE strains; VRE strain E1441, GRC, vanA",128 µg/mL
same,MIC,"thirty VRE strains; VRE strain E1679, BRA, vanA",>128 µg/mL
same,MIC,"thirty VRE strains; VRE strain E1763, BEL, vanA",>128 µg/mL
same,MIC,"thirty VRE strains; VRE strain E2297, USA, vanA",128 µg/mL
same,MIC,"thirty VRE strains; VRE strain E2359, SGP, vanB",<1-1 μg/mL
same,MIC,"thirty VRE strains; VRE strain E2365, HUN, vanB",<1 µg/mL
same,MIC,"thirty VRE strains; VRE strain E2373, SRB, vanA",>128 µg/mL
same,MIC,"thirty VRE strains; VRE strain E6016, LVA, vanA",128 µg/mL
same,MIC,"thirty VRE strains; VRE strain E7312, NLD, vanA",64 µg/mL
same,MIC,"thirty VRE strains; VRE strain E7314, NLD, vanB",>128 µg/mL
same,MIC,"thirty VRE strains; VRE strain E7319, NLD, vanA",>128 µg/mL
same,MIC,"thirty VRE strains; VRE strain E7329, NLD, vanA",<1 µg/mL
same,MIC,"thirty VRE strains; VRE strain E7401, NLD, vanB",16 µg/mL
same,MIC,"thirty VRE strains; VRE strain E7403, NLD, vanB",<1 µg/mL
same,MIC,"thirty VRE strains; VRE strain E7413, NLD, vanA",>128 µg/mL
same,MIC,"thirty VRE strains; VRE strain E7424, NLD, vanB",>128 µg/mL
same,MIC,"thirty VRE strains; VRE strain E7464, NLD, vanB",2 µg/mL
same,MIC,"thirty VRE strains; VRE strain E8218, NLD, vanB",8 µg/mL
same,MIC,"thirty VRE strains; VRE strain E8235, NLD, vanB",8 µg/mL
same,MIC,"thirty VRE strains; VRE strain E8237, NLD, vanA",128 µg/mL
same,MIC50,thirty VRE strains; thirty VRE strains,MIC50 = 128 μg/mL
same,MIC90,thirty VRE strains; thirty VRE strains,MIC90 = >128 μg/mL
